# Data published in the supplement of paper PMC10307832.
# Columns and labels:
# Assay in all cases: relative viability (nuclei count vs DMSO), 5 days (fraction); higher = more cells survive
# [1] = system: 201T
# Method in brief: (§1)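 Lung cancer cell lines in 1536-well plates were dosed by pin tool the day after seeding, either with one drug alone or with a fixed anchor-drug dose plus five library-drug doses (not always all listed) in √10 steps. After 5 days, cells were fixed and their nuclei stained in one step (final 0.05% Triton X-100, 1% formaldehyde, 1 ug/ml Hoechst), then counted on 4× images. Relative viability is the nuclei count in treated wells divided by that in vehicle wells. Values are medians of duplicate plates.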
# [2] = system: BEN
# Method in brief: as §1
# [3] = system: CAL-12T
# Method in brief: as §1
# [4] = system: COR-L 105
# Method in brief: as §1
# [5] = system: EKVX
# Method in brief: as §1
# [6] = system: HARA
# Method in brief: as §1
# [7] = system: HCC-366
# Method in brief: as §1
# [8] = system: LK-2
# Method in brief: as §1
# [9] = system: LOU-NH91
# Method in brief: as §1
# [10] = system: NCI-H1437
# Method in brief: as §1
# [11] = system: NCI-H1650
# Method in brief: as §1
# [12] = system: NCI-H1666
# Method in brief: as §1
# [13] = system: NCI-H2009
# Method in brief: as §1
# [14] = system: NCI-H2170
# Method in brief: as §1
# [15] = system: NCI-H3122
# Method in brief: as §1
# [16] = system: NCI-H441
# Method in brief: as §1
# [17] = system: NCI-H460
# Method in brief: as §1
# [18] = system: NCI-H727
# Method in brief: as §1
# [19] = system: PC-14
# Method in brief: as §1
smiles,measurement,setting,value
CCN(CC)CCCCNc1ncc2cc(-c3cc(OC)cc(OC)c3)c(NC(=O)NC(C)(C)C)nc2n1 + CC1(C)CCC(c2ccc(Cl)cc2)=C(CN2CCN(c3ccc(C(=O)NS(=O)(=O)c4ccc(N[C@H](CCN5CCOCC5)CSc5ccccc5)c(S(=O)(=O)C(F)(F)F)c4)cc3)CC2)C1 [Navitoclax] (partner 0.5 µM),relative viability,[1]; first compound 0.01 µM,1.17
same,relative viability,[1]; first compound 0.03162 µM,1.21
same,relative viability,[1]; first compound 0.1 µM,1.24
same,relative viability,[1]; first compound 0.3162 µM,1.23
same,relative viability,[1]; first compound 1 µM,1.19
same,relative viability,[2]; first compound 0.01 µM,0.0624
same,relative viability,[2]; first compound 0.03162 µM,0.0641
same,relative viability,[2]; first compound 0.1 µM,0.0454
same,relative viability,[2]; first compound 0.3162 µM,0.0573
same,relative viability,[2]; first compound 1 µM,0.0385
same,relative viability,[3]; first compound 0.01 µM,1.43
same,relative viability,[3]; first compound 0.03162 µM,1.12
same,relative viability,[3]; first compound 0.1 µM,1.22
same,relative viability,[3]; first compound 0.3162 µM,1.42
same,relative viability,[3]; first compound 1 µM,1.19
same,relative viability,[4]; first compound 0.01 µM,0.811
same,relative viability,[4]; first compound 0.03162 µM,0.81
same,relative viability,[4]; first compound 0.1 µM,0.83
same,relative viability,[4]; first compound 0.3162 µM,0.872
same,relative viability,[4]; first compound 1 µM,0.883
same,relative viability,[5]; first compound 0.01 µM,0.946
same,relative viability,[5]; first compound 0.03162 µM,0.851
same,relative viability,[5]; first compound 0.1 µM,1.01
same,relative viability,[5]; first compound 0.3162 µM,1.04
same,relative viability,[5]; first compound 1 µM,0.968
same,relative viability,[6]; first compound 0.01 µM,1.19
same,relative viability,[6]; first compound 0.03162 µM,1.15
same,relative viability,[6]; first compound 0.1 µM,1.29
same,relative viability,[6]; first compound 0.3162 µM,1.14
same,relative viability,[6]; first compound 1 µM,1.04
same,relative viability,[7]; first compound 0.01 µM,1.16
same,relative viability,[7]; first compound 0.03162 µM,1.09
same,relative viability,[7]; first compound 0.1 µM,1.2
same,relative viability,[7]; first compound 0.3162 µM,1.27
same,relative viability,[7]; first compound 1 µM,1.2
same,relative viability,[8]; first compound 0.01 µM,0.918
same,relative viability,[8]; first compound 0.03162 µM,0.841
same,relative viability,[8]; first compound 0.1 µM,0.8
same,relative viability,[8]; first compound 0.3162 µM,0.732
same,relative viability,[8]; first compound 1 µM,0.36
same,relative viability,[9]; first compound 0.01 µM,0.611
same,relative viability,[9]; first compound 0.03162 µM,0.674
same,relative viability,[9]; first compound 0.1 µM,0.718
same,relative viability,[9]; first compound 0.3162 µM,0.795
same,relative viability,[9]; first compound 1 µM,0.722
same,relative viability,[10]; first compound 0.01 µM,1.11
same,relative viability,[10]; first compound 0.03162 µM,1.1
same,relative viability,[10]; first compound 0.1 µM,1.35
same,relative viability,[10]; first compound 0.3162 µM,1.22
same,relative viability,[10]; first compound 1 µM,1.04
same,relative viability,[11]; first compound 0.01 µM,1.12
same,relative viability,[11]; first compound 0.03162 µM,1.03
same,relative viability,[11]; first compound 0.1 µM,1.17
same,relative viability,[11]; first compound 0.3162 µM,0.784
same,relative viability,[11]; first compound 1 µM,0.7
same,relative viability,[12]; first compound 0.01 µM,1.03
same,relative viability,[12]; first compound 0.03162 µM,1.02
same,relative viability,[12]; first compound 0.1 µM,0.972
same,relative viability,[12]; first compound 0.3162 µM,1.12
same,relative viability,[12]; first compound 1 µM,0.871
same,relative viability,[13]; first compound 0.01 µM,1.25
same,relative viability,[13]; first compound 0.03162 µM,1.14
same,relative viability,[13]; first compound 0.1 µM,1.21
same,relative viability,[13]; first compound 0.3162 µM,1.31
same,relative viability,[13]; first compound 1 µM,1.11
same,relative viability,[14]; first compound 0.01 µM,0.586
same,relative viability,[14]; first compound 0.03162 µM,0.75
same,relative viability,[14]; first compound 0.1 µM,0.558
same,relative viability,[14]; first compound 0.3162 µM,0.641
same,relative viability,[14]; first compound 1 µM,0.528
same,relative viability,[15]; first compound 0.01 µM,1.02
same,relative viability,[15]; first compound 0.03162 µM,1.06
same,relative viability,[15]; first compound 0.1 µM,1.06
same,relative viability,[15]; first compound 0.3162 µM,1.03
same,relative viability,[15]; first compound 1 µM,1.07
same,relative viability,[16]; first compound 0.01 µM,0.547
same,relative viability,[16]; first compound 0.03162 µM,0.714
same,relative viability,[16]; first compound 0.1 µM,1.2
same,relative viability,[16]; first compound 0.3162 µM,0.827
same,relative viability,[16]; first compound 1 µM,0.618
same,relative viability,[17]; first compound 0.01 µM,1.3
same,relative viability,[17]; first compound 0.03162 µM,1.18
same,relative viability,[17]; first compound 0.3162 µM,1.21
same,relative viability,[17]; first compound 1 µM,1.09
same,relative viability,[18]; first compound 0.01 µM,0.443
same,relative viability,[18]; first compound 0.03162 µM,0.336
same,relative viability,[18]; first compound 0.1 µM,0.428
same,relative viability,[18]; first compound 0.3162 µM,0.454
same,relative viability,[18]; first compound 1 µM,0.387
same,relative viability,[19]; first compound 0.01 µM,1.11
same,relative viability,[19]; first compound 0.03162 µM,1.06
same,relative viability,[19]; first compound 0.1 µM,1.15
same,relative viability,[19]; first compound 0.3162 µM,1.01
same,relative viability,[19]; first compound 1 µM,0.985
COc1nc(C)cnc1NS(=O)(=O)c1cccnc1-c1ccc(-c2nnco2)cc1 [Zibotentan] + CC1(C)CCC(c2ccc(Cl)cc2)=C(CN2CCN(c3ccc(C(=O)NS(=O)(=O)c4ccc(N[C@H](CCN5CCOCC5)CSc5ccccc5)c(S(=O)(=O)C(F)(F)F)c4)cc3)CC2)C1 [Navitoclax] (partner 0.5 µM),relative viability,[1]; first compound 0.08 µM,1.23
same,relative viability,[1]; first compound 0.253 µM,1.21
same,relative viability,[1]; first compound 0.8 µM,1.23
same,relative viability,[1]; first compound 2.53 µM,1.21
same,relative viability,[2]; first compound 0.08 µM,0.0813
same,relative viability,[2]; first compound 0.253 µM,0.0646
same,relative viability,[2]; first compound 0.8 µM,0.059
same,relative viability,[2]; first compound 2.53 µM,0.0664
same,relative viability,[3]; first compound 0.08 µM,1.27
same,relative viability,[3]; first compound 0.253 µM,1
same,relative viability,[3]; first compound 0.8 µM,1.45
same,relative viability,[3]; first compound 2.53 µM,1.06
same,relative viability,[4]; first compound 0.08 µM,0.696
same,relative viability,[4]; first compound 0.253 µM,0.649
same,relative viability,[4]; first compound 0.8 µM,0.993
same,relative viability,[4]; first compound 2.53 µM,0.84
same,relative viability,[5]; first compound 0.08 µM,0.938
same,relative viability,[5]; first compound 0.253 µM,1
same,relative viability,[5]; first compound 0.8 µM,0.943
same,relative viability,[5]; first compound 2.53 µM,1.06
same,relative viability,[6]; first compound 0.08 µM,1.2
same,relative viability,[6]; first compound 0.253 µM,1.12
same,relative viability,[6]; first compound 0.8 µM,1.11
same,relative viability,[6]; first compound 2.53 µM,1.11
same,relative viability,[7]; first compound 0.08 µM,1.12
same,relative viability,[7]; first compound 0.253 µM,1.14
same,relative viability,[7]; first compound 0.8 µM,1.15
same,relative viability,[7]; first compound 2.53 µM,1.06
same,relative viability,[8]; first compound 0.08 µM,1.1
same,relative viability,[8]; first compound 0.253 µM,0.807
same,relative viability,[8]; first compound 0.8 µM,0.806
same,relative viability,[8]; first compound 2.53 µM,0.828
same,relative viability,[9]; first compound 0.08 µM,0.693
same,relative viability,[9]; first compound 0.253 µM,0.635
same,relative viability,[9]; first compound 0.8 µM,0.812
same,relative viability,[9]; first compound 2.53 µM,0.66
same,relative viability,[10]; first compound 0.08 µM,1.12
same,relative viability,[10]; first compound 0.253 µM,1.04
same,relative viability,[10]; first compound 0.8 µM,1.07
same,relative viability,[10]; first compound 2.53 µM,1.17
same,relative viability,[11]; first compound 0.08 µM,1.26
same,relative viability,[11]; first compound 0.8 µM,1.36
same,relative viability,[11]; first compound 2.53 µM,1.09
same,relative viability,[12]; first compound 0.08 µM,0.878
same,relative viability,[12]; first compound 0.253 µM,0.785
same,relative viability,[12]; first compound 0.8 µM,0.767
same,relative viability,[12]; first compound 2.53 µM,1.01
same,relative viability,[13]; first compound 0.08 µM,1.17
same,relative viability,[13]; first compound 0.253 µM,1.08
same,relative viability,[13]; first compound 0.8 µM,1.2
same,relative viability,[13]; first compound 2.53 µM,1.25
same,relative viability,[14]; first compound 0.08 µM,0.699
same,relative viability,[14]; first compound 0.253 µM,0.6
same,relative viability,[14]; first compound 0.8 µM,0.651
same,relative viability,[14]; first compound 2.53 µM,0.651
same,relative viability,[15]; first compound 0.08 µM,1.04
same,relative viability,[15]; first compound 0.253 µM,1.01
same,relative viability,[15]; first compound 0.8 µM,1.04
same,relative viability,[15]; first compound 2.53 µM,1.06
same,relative viability,[16]; first compound 0.08 µM,0.635
same,relative viability,[16]; first compound 0.8 µM,0.794
same,relative viability,[16]; first compound 2.53 µM,0.877
same,relative viability,[17]; first compound 0.08 µM,1.41
same,relative viability,[17]; first compound 0.8 µM,1.14
same,relative viability,[17]; first compound 2.53 µM,1.23
same,relative viability,[18]; first compound 0.08 µM,0.48
same,relative viability,[18]; first compound 0.253 µM,0.396
same,relative viability,[18]; first compound 0.8 µM,0.48
same,relative viability,[18]; first compound 2.53 µM,0.435
same,relative viability,[19]; first compound 0.08 µM,1.01
same,relative viability,[19]; first compound 0.253 µM,0.983
same,relative viability,[19]; first compound 0.8 µM,0.987
same,relative viability,[19]; first compound 2.53 µM,1.03
